# Source: ChEMBL document CHEMBL1137055, “Pyrazolo[1,5-a]pyrimidines as estrogen receptor ligands: defining the orientation of a novel heterocyclic core” (Bioorg Med Chem Lett, 2004)
# Experiments:
# [1] = biological target: Estrogen receptor beta (Homo sapiens) (UniProt Q92731); assay: Binding affinity for Estrogen receptor beta compared to estradiol (100%)
# [2] = biological target: T1, Estrogen receptor (Homo sapiens) (UniProt P03372); assay: Binding affinity for Estrogen receptor alpha compared to estradiol (100%)
# T1 sequence (whole entry): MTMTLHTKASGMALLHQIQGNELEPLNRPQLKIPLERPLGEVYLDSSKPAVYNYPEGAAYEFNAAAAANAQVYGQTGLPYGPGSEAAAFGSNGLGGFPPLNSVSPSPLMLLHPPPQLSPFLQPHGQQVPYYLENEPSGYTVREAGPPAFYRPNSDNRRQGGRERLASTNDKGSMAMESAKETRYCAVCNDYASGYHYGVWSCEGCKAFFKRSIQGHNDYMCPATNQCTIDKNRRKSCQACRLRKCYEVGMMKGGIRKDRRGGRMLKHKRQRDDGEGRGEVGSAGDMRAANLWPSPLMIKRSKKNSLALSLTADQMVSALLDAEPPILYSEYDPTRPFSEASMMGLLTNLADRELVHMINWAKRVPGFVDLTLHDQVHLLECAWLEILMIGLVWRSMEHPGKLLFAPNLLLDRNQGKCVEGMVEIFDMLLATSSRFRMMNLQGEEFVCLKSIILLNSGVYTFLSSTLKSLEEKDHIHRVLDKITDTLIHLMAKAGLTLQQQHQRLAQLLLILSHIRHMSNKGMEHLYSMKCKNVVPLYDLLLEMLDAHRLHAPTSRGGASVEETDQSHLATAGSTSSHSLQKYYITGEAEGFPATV
# Chain of Estrogen receptor beta (Homo sapiens) (Q92731 whole entry): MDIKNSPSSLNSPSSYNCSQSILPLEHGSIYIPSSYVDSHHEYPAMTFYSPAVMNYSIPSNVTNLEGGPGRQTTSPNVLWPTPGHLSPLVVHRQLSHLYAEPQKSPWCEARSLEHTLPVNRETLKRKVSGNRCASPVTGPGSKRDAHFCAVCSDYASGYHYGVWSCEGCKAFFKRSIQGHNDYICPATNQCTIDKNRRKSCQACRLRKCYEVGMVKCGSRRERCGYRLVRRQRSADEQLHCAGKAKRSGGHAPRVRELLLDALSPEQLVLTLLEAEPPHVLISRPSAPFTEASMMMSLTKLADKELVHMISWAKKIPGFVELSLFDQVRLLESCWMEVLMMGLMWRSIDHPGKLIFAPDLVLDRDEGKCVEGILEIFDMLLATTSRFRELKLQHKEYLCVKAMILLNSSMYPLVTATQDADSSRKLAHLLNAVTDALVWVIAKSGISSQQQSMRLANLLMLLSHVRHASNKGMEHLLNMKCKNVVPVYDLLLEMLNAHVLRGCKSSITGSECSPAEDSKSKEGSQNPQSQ
Structure (SMILES),Binding affinity [1],Binding affinity [2]
Oc1cnc2c(-c3ccccc3)c(-c3ccccc3)nn2c1,0.005%,–
Oc1ccc(-c2c(-c3ccccc3)nn3cc(O)cnc23)cc1,0.006%,–
Oc1ccc(-c2nn3cccnc3c2-c2ccc(O)cc2)cc1,0.1%,0.004%

# The next lines start with the values.
Binding affinity [1],Binding affinity [2],Structure (SMILES)
0.05%,0.01%,Oc1ccc(-c2nn3cccnc3c2-c2ccccc2)cc1
0.02%,0.007%,Oc1ccc(-c2c(-c3ccccc3)nn3cccnc23)cc1
0.03%,0.004%,Oc1ccc(-c2nn3cc(O)cnc3c2-c2ccc(O)cc2)cc1
0.01%,0.003%,Oc1ccc(-c2nn3cc(O)cnc3c2-c2ccccc2)cc1
